Measurements as given in BindingDB's records for patent US20240018151 (Tme Therapeutics, 2024).

Molecular target: 1-phosphatidylinositol 3-phosphate 5-kinase (Homo sapiens, UniProt Q9Y2I7)
Assay: ADP-GLO Kinase Assay
Experimental: Briefly, 4 compound solution and 4 ATP solution are prepared with assay buffer (50 mM MOPS, 1 mM DTT, pH7.2). 4 Substrate solution and 4 kinase/Metal solution are prepared with MOPS based buffer containing individual kinase specific additives. Then, […], 5 μL of 4 Substrate solution, 5 μL of 4 ATP solution, and 5 μL of 4 kinase/Metal solution are mixed and incubated in a well of polystyrene 384 well black microplate for 1 hour at room temperature. Next, 20 μL of ADP-Glo Reagent (Promega) is added to the well,and incubated for over 40 minutes. 40 μL of Kinase Detection Reagent (Promega) is added to the well, and incubated for over 40 minutes. The kinase reaction is evaluated by the endpoint luminescence of the well. For measurement of PIKFYVE activity, the substrate is PI3P at 10,000 nM concentration, using AG-182 as a positive control. The metal used is magnesium at 5 mM concentration.

Chain of 1-phosphatidylinositol 3-phosphate 5-kinase (Q9Y2I7 whole entry): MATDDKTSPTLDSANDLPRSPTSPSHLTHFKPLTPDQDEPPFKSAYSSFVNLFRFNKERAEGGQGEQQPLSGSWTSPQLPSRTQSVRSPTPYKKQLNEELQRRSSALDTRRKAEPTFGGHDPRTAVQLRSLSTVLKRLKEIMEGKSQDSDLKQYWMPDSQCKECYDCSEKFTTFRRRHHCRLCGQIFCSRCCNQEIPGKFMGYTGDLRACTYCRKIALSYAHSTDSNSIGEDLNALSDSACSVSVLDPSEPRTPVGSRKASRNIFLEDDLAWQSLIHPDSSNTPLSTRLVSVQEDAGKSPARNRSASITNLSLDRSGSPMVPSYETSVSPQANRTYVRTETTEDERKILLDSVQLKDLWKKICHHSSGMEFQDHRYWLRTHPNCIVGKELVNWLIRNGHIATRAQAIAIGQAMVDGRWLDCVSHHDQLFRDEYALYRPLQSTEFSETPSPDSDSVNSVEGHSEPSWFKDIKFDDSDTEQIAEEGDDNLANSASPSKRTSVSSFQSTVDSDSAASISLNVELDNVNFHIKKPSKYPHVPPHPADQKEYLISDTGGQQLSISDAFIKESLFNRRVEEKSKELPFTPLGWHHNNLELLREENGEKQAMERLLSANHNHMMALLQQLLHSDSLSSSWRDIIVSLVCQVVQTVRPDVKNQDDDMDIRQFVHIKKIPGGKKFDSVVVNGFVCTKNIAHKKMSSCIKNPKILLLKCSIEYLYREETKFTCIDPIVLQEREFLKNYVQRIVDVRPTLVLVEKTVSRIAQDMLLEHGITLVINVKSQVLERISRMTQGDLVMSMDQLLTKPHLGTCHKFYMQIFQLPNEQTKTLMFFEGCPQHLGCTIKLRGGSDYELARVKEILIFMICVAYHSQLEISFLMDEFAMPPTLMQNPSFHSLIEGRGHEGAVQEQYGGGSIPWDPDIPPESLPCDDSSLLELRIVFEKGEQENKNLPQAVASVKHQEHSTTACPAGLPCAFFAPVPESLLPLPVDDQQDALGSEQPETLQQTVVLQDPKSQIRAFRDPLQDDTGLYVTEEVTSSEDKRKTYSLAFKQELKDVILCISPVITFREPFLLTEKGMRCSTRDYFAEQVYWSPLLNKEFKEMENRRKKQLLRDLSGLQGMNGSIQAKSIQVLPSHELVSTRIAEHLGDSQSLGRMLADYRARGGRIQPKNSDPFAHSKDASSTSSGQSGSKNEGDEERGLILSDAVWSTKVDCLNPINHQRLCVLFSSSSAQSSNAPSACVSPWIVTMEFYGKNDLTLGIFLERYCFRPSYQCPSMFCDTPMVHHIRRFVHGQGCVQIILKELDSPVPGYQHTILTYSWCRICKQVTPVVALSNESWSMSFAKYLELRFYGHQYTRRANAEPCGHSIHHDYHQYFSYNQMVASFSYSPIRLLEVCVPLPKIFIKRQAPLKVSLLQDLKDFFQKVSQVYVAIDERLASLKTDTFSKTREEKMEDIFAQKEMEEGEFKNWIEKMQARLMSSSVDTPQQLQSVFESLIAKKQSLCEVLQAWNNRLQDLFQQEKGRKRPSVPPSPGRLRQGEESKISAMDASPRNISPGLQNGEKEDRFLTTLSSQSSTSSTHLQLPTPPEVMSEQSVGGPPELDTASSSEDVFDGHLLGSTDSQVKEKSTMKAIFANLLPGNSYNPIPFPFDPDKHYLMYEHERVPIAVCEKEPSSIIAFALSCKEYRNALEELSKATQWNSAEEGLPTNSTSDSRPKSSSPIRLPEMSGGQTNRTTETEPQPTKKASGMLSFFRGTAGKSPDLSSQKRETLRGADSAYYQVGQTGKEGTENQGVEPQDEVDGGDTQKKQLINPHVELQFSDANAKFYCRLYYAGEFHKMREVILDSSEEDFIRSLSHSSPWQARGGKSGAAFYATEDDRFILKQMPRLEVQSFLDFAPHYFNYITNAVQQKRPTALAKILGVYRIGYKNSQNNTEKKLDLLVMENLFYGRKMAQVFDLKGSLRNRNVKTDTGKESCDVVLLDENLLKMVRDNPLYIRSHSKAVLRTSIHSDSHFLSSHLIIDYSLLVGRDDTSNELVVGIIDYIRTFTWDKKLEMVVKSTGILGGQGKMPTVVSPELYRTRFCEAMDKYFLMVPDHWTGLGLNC

IC50: < 0.05 µM
Compound: Brc1cccc(-c2ccn(-c3cc(N4CCOCC4)n4nc(-c5ccncc5)cc4n3)n2)c1 [US20240018151, Example 3]
